In ChEMBL document CHEMBL4732135, “Structural and mechanistic insights into the inhibition of amyloid-β aggregation by Aβ fragment derived synthetic peptides” (Eur J Med Chem, 2021):
Square brackets hold non-standard residues; d marks the D form. Peptide text beside a SMILES is read from it. ξ: configuration not given here. Phe(4-NO2) = N[C@@H](Cc1ccc([N+](=O)[O-])cc1)C(=O)O; Phe(4-CF3) = N[C@@H](Cc1ccc(C(F)(F)F)cc1)C(=O)O; Phe(4-tBu) = CC(C)(C)c1ccc(C[C@H](N)C(=O)O)cc1; Bip = N[C@@H](Cc1ccc(-c2ccccc2)cc1)C(=O)O; Oic(3aξ,7aξ) = O=C(O)[C@@H]1CC2CCCCC2N1; Phe(4-NH2) = Nc1ccc(C[C@H](N)C(=O)O)cc1; Phe(4-Me) = Cc1ccc(C[C@H](N)C(=O)O)cc1; Gly(cPent) = N[C@H](C(=O)O)C1CCCC1; Ala(cPr) = N[C@@H](CC1CC1)C(=O)O; 4Pal = N[C@@H](Cc1ccncc1)C(=O)O; Tle = CC(C)(C)[C@H](N)C(=O)O; NMeNva = CCC[C@H](NC)C(=O)O; Ac5c = NC1(C(=O)O)CCCC1; Abu = CC[C@H](N)C(=O)O; βAla = NCCC(=O)O

What was measured:
[1] = biological target: Amyloid-beta precursor protein (Homo sapiens) (UniProt P05067); test: Inhibition of amyloid beta (1 to 42) (unknown origin) assessed as reduction in peptide aggregation at 10 uM measured after 24 hrs by thioflavin-T fluorescence assay relative to control
PC-12 [2] = test: Neuroprotective activity against amyloid beta 42-induced toxicity in rat PC-12 cells assessed as cell viability at 10 uM measured after 6 hrs by MTT assay (reference value: 74.05%); format: functional; conditions: read-out: Activity
[3] = biological target: Amyloid-beta precursor protein (Homo sapiens) (UniProt P05067); test: Inhibition of amyloid beta (1 to 42) (unknown origin) assessed as reduction in peptide aggregation at 2 uM measured after 24 hrs by thioflavin-T fluorescence assay relative to control
PC-12 [4] = test: Neuroprotective activity against amyloid beta 42-induced toxicity in rat PC-12 cells assessed as cell viability at 4 uM measured after 6 hrs by MTT assay (reference value: 74.05%); format: functional; conditions: read-out: Activity
PC-12 [5] = test: Neuroprotective activity against amyloid beta 42-induced toxicity in rat PC-12 cells assessed as cell viability at 2 uM measured after 6 hrs by MTT assay (reference value: 74.05%); format: functional; conditions: read-out: Activity
[6] = biological target: Amyloid-beta precursor protein (Homo sapiens) (UniProt P05067); test: Inhibition of amyloid beta (1 to 42) (unknown origin) assessed as reduction in peptide aggregation at 4 uM measured after 24 hrs by thioflavin-T fluorescence assay relative to control

Chain of Amyloid-beta precursor protein (Homo sapiens) (P05067 whole entry): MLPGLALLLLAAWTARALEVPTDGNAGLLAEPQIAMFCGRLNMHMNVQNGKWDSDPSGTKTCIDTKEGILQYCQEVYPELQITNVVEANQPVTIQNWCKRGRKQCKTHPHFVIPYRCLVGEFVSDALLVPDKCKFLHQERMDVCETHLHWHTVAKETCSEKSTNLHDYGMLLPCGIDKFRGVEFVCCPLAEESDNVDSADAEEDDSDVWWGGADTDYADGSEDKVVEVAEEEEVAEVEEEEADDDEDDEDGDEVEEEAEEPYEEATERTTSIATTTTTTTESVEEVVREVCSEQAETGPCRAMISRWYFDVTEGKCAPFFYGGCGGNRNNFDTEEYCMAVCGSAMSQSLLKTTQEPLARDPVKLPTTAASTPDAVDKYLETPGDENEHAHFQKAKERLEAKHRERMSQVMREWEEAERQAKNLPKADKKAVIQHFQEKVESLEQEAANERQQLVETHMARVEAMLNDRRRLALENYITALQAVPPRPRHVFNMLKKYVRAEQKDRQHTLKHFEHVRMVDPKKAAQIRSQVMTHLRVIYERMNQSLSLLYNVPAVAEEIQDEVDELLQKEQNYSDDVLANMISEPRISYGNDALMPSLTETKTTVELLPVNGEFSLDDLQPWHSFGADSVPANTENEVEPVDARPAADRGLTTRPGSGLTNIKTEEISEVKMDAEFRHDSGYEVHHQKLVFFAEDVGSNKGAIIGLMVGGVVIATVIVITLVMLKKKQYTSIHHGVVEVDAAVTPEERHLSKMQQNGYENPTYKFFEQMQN

Row | SMILES | inhibition [1] [%] | inhibition [3] [%] | inhibition [6] [%] | viability at 10 µM (PC-12 [2]) [%] | viability at 4 µM (PC-12 [4]) [%] | viability at 2 µM (PC-12 [5]) [%]
1 | CC[C@H](C)[C@H](NC(=O)[C@@H](NC(=O)[C@@H](N)Cc1ccc(C(C)(C)C)cc1)C(C)C)C(=O)N[C@@H](C)C(=O)O (H-[Phe(4-tBu)]VIA-OH) | 42 | 78.6 | 57.4 | 80.2 | 87.3 | 93.6
2 | CC[C@H](C)[C@H](NC(=O)[C@@H](NC(=O)[C@@H](N)Cc1ccc(N)cc1)C(C)C)C(=O)N[C@@H](C)C(=O)O (H-[Phe(4-NH2)]VIA-OH) | 77.4 | 59.2 | 68.4 | 82.1 | 70.3 | 77.8
3 | CCC[C@@H](C(=O)N[C@@H](C)C(=O)O)N(C)C(=O)[C@@H](NC(=O)[C@@H](N)C(C)C)C(C)C (H-VV[NMeNva]A-OH) | 40.8 | 22.2 | 34.9 | 82.1 | 83.7 | 87.3
4 | CC[C@H](C)[C@H](NC(=O)[C@@H](NC(=O)[C@@H](N)Cc1ccc([N+](=O)[O-])cc1)C(C)C)C(=O)N[C@@H](C)C(=O)O (H-[Phe(4-NO2)]VIA-OH) | 50.4 | 94.8 | 78.4 | 73.7 | 100 | 94.1
5 | CC[C@H](C)[C@H](NC(=O)[C@@H](NC(=O)[C@@H](N)Cc1ccc(C)cc1)C(C)C)C(=O)N[C@@H](C)C(=O)O (H-[Phe(4-Me)]VIA-OH) | 26.8 | 0 | 3.2 | 72.6 | 68.4 | 71.7
6 | CC[C@H](C)[C@H](NC(=O)[C@@H](NC(=O)[C@@H](N)Cc1ccc(C(F)(F)F)cc1)C(C)C)C(=O)N[C@@H](C)C(=O)O (H-[Phe(4-CF3)]VIA-OH) | 4.5 | 41.8 | 20.4 | 86.2 | 88.7 | 92.1
7 | CC[C@H](C)[C@H](NC(=O)[C@@H](NC(=O)C[C@H](N)c1ccccc1)C(C)C)C(=O)N[C@@H](C)C(=O)O | 67.3 | 50.1 | 58.2 | 58.8 | 66.3 | 69.1
8 | CC[C@H](C)[C@H](NC(=O)[C@@H](NC(=O)[C@@H](N)Cc1ccc(-c2ccccc2)cc1)C(C)C)C(=O)N[C@@H](C)C(=O)O (H-[Bip]VIA-OH) | 12.9 | 26.4 | 34.7 | 83.2 | 80.6 | 86.5
9 | CC[C@H](C)[C@H](NC(=O)C1(NC(=O)[C@@H](N)C(C)C)CCCC1)C(=O)N[C@@H](C)C(=O)O (H-V[Ac5c]IA-OH) | 100 | 100 | 100 | 100 | 97.1 | 89
10 | CC[C@H](C)[C@H](NC(=O)[C@@H]1CC2CCCCC2N1C(=O)[C@@H]1CC2CCCCC2N1)C(=O)N[C@@H](C)C(=O)O (stereo partly drawn) (H-[Oic(3aξ,7aξ)][Oic(3aξ,7aξ)]IA-OH) | 91.5 | 100 | 99.1 | 88.5 | 92.9 | 93.2
11 | CC[C@H](C)[C@H](NC(=O)[C@@H](NC(=O)[C@@H](N)C(C)C)C(C)C)C(=O)N[C@@H](CCC(=O)O)C(=O)O (H-VVIE-OH) | 65.1 | 38.8 | 39.3 | 84.9 | 76.3 | 68.9
12 | CC[C@H](C)[C@H](NC(=O)CNC(=O)CN)C(=O)N[C@@H](C)C(=O)O (H-GGIA-OH) | 98.3 | 93.6 | 95.2 | 66.8 | 72.8 | 100
13 | CC(C)[C@H](N)C(=O)N[C@H](C(=O)N[C@H](C(=O)N[C@@H](C)C(=O)O)C1CCCC1)C(C)C (H-VV[Gly(cPent)]A-OH) | 47.8 | 17.1 | 40.3 | 84.2 | 91.9 | 85.6
14 | CC(C)[C@H](N)C(=O)N[C@H](C(=O)NC[C@@H]1CCCN1[C@@H](C)C(=O)O)C(C)C | 11.9 | 0 | 0 | 58.8 | 64.7 | 72
15 | CC(C)[C@H](N)C(=O)N[C@H](C(=O)N1C2CCCCC2C[C@H]1C(=O)N[C@@H](C)C(=O)O)C(C)C (stereo partly drawn) (H-VV[Oic(3aξ,7aξ)]A-OH) | 46.4 | 37.2 | 19.3 | 86.1 | 78.4 | 60
16 | CC[C@H](C)[C@H](NC(=O)[C@@H](NC(=O)[C@@H](N)Cc1ccncc1)C(C)C)C(=O)N[C@@H](C)C(=O)O (H-[4Pal]VIA-OH) | 46 | 42.7 | 44.2 | 96.8 | 78.2 | 82

More lines, main results first:

Row | inhibition [1] [%] | inhibition [3] [%] | inhibition [6] [%] | SMILES | viability at 10 µM (PC-12 [2]) [%] | viability at 4 µM (PC-12 [4]) [%] | viability at 2 µM (PC-12 [5]) [%]
17 | 13 | 0 | 0 | CC[C@H](C)[C@H](NC(=O)[C@@H](NC(=O)[C@@H](N)C(C)C)C(C)C)C(=O)NCCC(=O)O (H-VVI[βAla]-OH) | 87.3 | 93.1 | 97.8
18 | 0 | 0 | 0 | CC(C)[C@H](N)C(=O)N[C@H](C(=O)N[C@@H](CC1CC1)C(=O)N[C@@H](C)C(=O)O)C(C)C (H-VV[Ala(cPr)]A-OH) | 65.9 | 77 | 68.4
19 | 71.5 | 38.6 | 59.9 | CC[C@H](C)[C@H](NC(=O)[C@@H](NC(=O)[C@@H](N)C(C)C)C(C)C)C(=O)N[C@@H](CC(N)=O)C(=O)O (H-VVIN-OH) | 69.2 | 67.4 | 93.6
20 | 0 | 0 | 0 | CC(C)[C@H](N)C(=O)N[C@H](C(=O)N[C@H](C(=O)N[C@@H](C)C(=O)O)C(C)(C)C)C(C)C (H-VV[Tle]A-OH) | 82.7 | 69.2 | 78.1
21 | 24.1 | 0 | 5.3 | CC[C@H](NC(=O)[C@@H](N)C(C)C)C(=O)N[C@H](C(=O)N[C@@H](C)C(=O)O)[C@@H](C)CC (H-V[Abu]IA-OH) | 82.7 | 70.8 | 90.1
22 | 100 | 100 | 100 | CC[C@H](C)[C@H](NC(=O)[C@@H](NC(=O)[C@@H](N)C(C)C)C(C)(C)C)C(=O)N[C@@H](C)C(=O)O (H-V[Tle]IA-OH) | 100 | 91.3 | 89.3
23 | 32.5 | 2.8 | 2 | CC[C@H](NC(=O)[C@@H](NC(=O)[C@@H](NC(=O)[C@@H](N)C(C)C)C(C)C)[C@@H](C)CC)C(=O)O (H-VVI[Abu]-OH) | 65.6 | 73.4 | 77.9
